This is an account of results in patent US20260166021A1, “POLYMORPHIC FORMS OF A SOLUBLE EPOXIDE HYDROLASE INHIBITOR AND FORMULATIONS THEREOF” (EicOsis, LLC, priority 2022, published 2026).

Common to all, as to type: physicochemical
Data set [1] is described as follows: Thermal gravimetric analysis (TGA). The protocol:
Thermal gravimetric analyses were performed on each sample “as is.” Unless otherwise noted, samples were weighed in an alumina crucible and analyzed from 30-350° C. at 10° C./min.
Form C weight loss at 39° C.-50° C. likely reflected methanol loss.

Data set [2] is described as follows: Differential scanning calorimetry (DSC): heat of fusion, thermal events. The following applies: for thermodynamic stability (from heat of fusion) / Heat of fusion: DSC; for thermodynamic stability (from heat of fusion): TABLE 10; for Heat of fusion: scaled-up polymorphs, measured during conversion from Form C. The protocol:
Differential scanning calorimetry analyses were performed on each sample “as is.” Unless otherwise specified, samples were weighed in an aluminum pan, covered with a pierced lid, and then crimped and analyzed from 30-300° C. ramped at 10° C./min.
The DSC data were used to determine the heat of fusion for Forms A, B, D, and F, based on their heats of fusion as measured during conversion from Form C.
For orientation: In DSC, transitions show as peaks or steps in heat flow.

Data set [3] in a line: Thermal stress studies at 60° C. (XRD, HPLC). The following applies: for Day 1 % AUC / Day 7 % AUC / Initial % AUC: HPLC; for Initial % AUC: before thermal stress. The protocol: Briefly, 20 mg of solid Form A, B, C, D, E, F, G, and I were weighed into 7 mL glass vials. The vials were covered with tissue and stored in ovens set to 60° C. and ambient pressure. Following 1 and 7 days incubation, solid was collected for XRD analysis.
As shown in these figures, Forms B and C converted to Forms D and A, respectively, while the other forms remained unchanged.
The starting materials, intermediates (1 day of thermal stress), and products (7 days of thermal stress) were analyzed by H PLC. Representative chromatograms from the Form D thermal stress analyses are shown in FIGS. 81-83 (starting material, 1 day, and 7 day samples, respectively).

Data set [4] in a line: Competitive slurry experiments (solvent-mediated polymorph transformation, XRD). The following applies: room temperature, 1 and 7 days. The protocol:
Polymorph stability and interconversions were analyzed with competitive slurry experiments. The competitive slurry (solvent-mediated transformation) experiments were performed on Forms A, B, D, E, F, G, and I generated through scaled-up crystallization (summarized in TABLE 11). […] The suspensions were aliquoted at one day and seven days and filtered to isolate the solids. Remaining solid was analyzed by XRD without drying.
In FIG. 66, the second spectrum from the top corresponds to Form E. These XRD data confirmed that Patterns C, K, and D were afforded in these solvents.
In order to further confirm the rank of stability order of the selected forms and extend the temperature range of stability relationship up to 70° C. covering potential API process conditions, binary form slurries were conducted with starting mixtures of (1) Forms A and D, and (2) Forms D and E. The resultant polymorphs were characterized with XRD after 1 and 7 days, the results of which analyses are shown in FIGURE S 67-68 and summarized in TABLE 13. Pattern D stood out from both binary mixture slurries of A & D and of D & E after seven-day stirring at the elevated temperature.
Additional single form slurry experiments were conducted on Forms A, D, and E in either water or heptane at room temperature. […] In agreement with prior competitive slurry experiments, Form D was stable at room temperature in n-heptane. Pattern E was obtained from slurries starting with Forms A and E in n-heptane. As expected, Form C was formed from the Pattern E slurry in water.

Molecules are shown by their SMILES.

For `CC[C@H](C)C(=O)N1CCC(NC(=O)Nc2ccc(OC(F)(F)F)c(F)c2)CC1` [C], the “TGA: wt change” value in data set [1] (at range 39° C.-50° C.) amounted to 1.4% wt change at. Moreover, in data set [2], the “DSC Thermal Events, Endo: dehydration of bound water of pattern C” value was 73° C.: dehydration of bound water of; the “DSC Thermal Events, Endo: melting of pattern A” value was 109 °C melting of pattern A; the “DSC Thermal Events, Endo: melting of pattern F” value was 147 °C melting of pattern F; the “DSC Thermal Events, Exo: crystallization of pattern F” value is 114 °C crystallization of pattern F.

For `CC[C@H](C)C(=O)N1CCC(NC(=O)Nc2ccc(OC(F)(F)F)c(F)c2)CC1` [H], the “TGA: wt change” value in data set [1] (at 83° C.) is on record as “No detectable wt”. Besides, the “TGA: wt change” value in data set [1] (at range […] C.-126° C.) was found to be 7.2% wt change at. In data set [2], the “DSC Thermal Events, Endo: dehydration of bound water of pattern C” value was 83° C.: dehydration of bound water of; the “DSC Thermal Events, Endo: desolvation of pattern H” value is 129 °C desolvation of pattern H; the “DSC Thermal Events, Endo: melting of pattern A” value is 140 °C melting of pattern A; the “DSC Thermal Events, Endo: melting of pattern F” value was 148 °C melting of pattern F. Moreover, in data set [2], the “DSC Thermal Events, Exo: crystallization of pattern D” value is 133 °C crystallization of pattern D and the “DSC Thermal Events, Exo: crystallization of pattern F” value was 142 °C crystallization of patter F.

Regarding `CC[C@H](C)C(=O)N1CCC(NC(=O)Nc2ccc(OC(F)(F)F)c(F)c2)CC1` [Lot 3], in data set [2] (DSC thermogram of lot), the “Endotherm (likely dehydration of bound water)” value is 84 °C, the “Endotherm (melting of Form A)” value was 111 °C (melting of Form A), and the “Exotherm (crystallization of Form B)” value was 117 °C (crystallization of.

Consider `CC[C@H](C)C(=O)N1CCC(NC(=O)Nc2ccc(OC(F)(F)F)c(F)c2)CC1` [G], for which the “Day 7 XRD” value in data set [3] (60° C., ambient pressure) is “G/L”. In addition, the “DSC Thermal Events, Endo: melting of pattern G” value in data set [2] was 143 °C melting of pattern G.

`CC[C@H](C)C(=O)N1CCC(NC(=O)Nc2ccc(OC(F)(F)F)c(F)c2)CC1` [Form B, (S)-1-(3-fluoro-4-(trifluoromethoxy)phenyl)-3-(1-(2-methylbutanoyl)piperidin-4-yl)urea]: in data set [3] (60° C., following one day of incubation), the “conversion to Form D” value stood at 100%. The “TGA: wt change” value in data set [1] (below 150° C.) is on record as “No wt change below”. Also, in data set [2], the “DSC Thermal Events, Endo: melting of pattern B” value is 146 °C melting of pattern B; the “DSC Thermal Events, Endo: melting of pattern D” value was 141 °C melting of pattern D; the “thermodynamic stability (from heat of fusion)” value was “thermodynamically stable”. In addition, the Heat of fusion in data set [2] (listed as B) was 53.14.

`CC[C@H](C)C(=O)N1CCC(NC(=O)Nc2ccc(OC(F)(F)F)c(F)c2)CC1` [E]: in data set [1] (at range 116° C.-119° C.), the “TGA: wt change” value was 4.7% wt change at. For the same molecule, in data set [2], the “DSC Thermal Events, Endo: dehydration of bound water of pattern E” value was 121 °C dehydration of bound water of; the “DSC Thermal Events, Endo: melting of pattern D” value was 142 °C melting of pattern D; the “DSC Thermal Events, Endo: melting of pattern F” value was 148 °C melting of pattern F; the “DSC Thermal Events, Exo: crystallization of pattern D” value was 126 °C crystallization of pattern D. Also, the “DSC Thermal Events, Exo: crystallization of pattern F” value in data set [2] was 144 °C crystallization of pattern F.

Take `CC[C@H](C)C(=O)N1CCC(NC(=O)Nc2ccc(OC(F)(F)F)c(F)c2)CC1` [Form F, (S)-1-(3-fluoro-4-(trifluoromethoxy)phenyl)-3-(1-(2-methylbutanoyl)piperidin-4-yl)urea]: in data set [3] (60° C.), the “Day 1 % AUC” value is 100% and the “Day 7 % AUC” value turned out to be 100%. The “Initial % AUC” value in data set [3] amounted to 100%. The “DSC Thermal Events, Endo: melting of pattern F” value in data set [2] was 150 °C melting of pattern F. Moreover, the Heat of fusion in data set [2] (listed as F) is reported as 57.06.

On to `CC[C@H](C)C(=O)N1CCC(NC(=O)Nc2ccc(OC(F)(F)F)c(F)c2)CC1` [K], for which, in data set [1] (at range 120° C.-[…] C.), the “TGA: wt change” value was found to be 5.0% wt change at. Moreover, in data set [2], the “DSC Thermal Events, Endo: dehydration of bound water/desolvation of pattern K” value is 127 °C dehydration of bound water/; the “DSC Thermal Events, Endo: melting of pattern D” value is 142 °C melting of pattern D; the “DSC Thermal Events, Endo: melting of pattern F” value was 148 °C melting of pattern F; the “DSC Thermal Events, Exo: crystallization of pattern D” value was 130 °C crystallization of pattern D.

Consider `CC[C@H](C)C(=O)N1CCC(NC(=O)Nc2ccc(OC(F)(F)F)c(F)c2)CC1` [Form A, (S)-1-(3-fluoro-4-(trifluoromethoxy)phenyl)-3-(1-(2-methylbutanoyl)piperidin-4-yl)urea], for which, in data set [3] (60° C.), the “Day 1 % AUC” value came out at 100% and the “Day 7 % AUC” value is 100%. The “Initial % AUC” value in data set [3] is recorded as 100%. Also, the “TGA: wt change” value in data set [1] (below 150° C.) is recorded as “No wt change below”. Moreover, the “single form slurry in n-heptane: resultant polymorph” value in data set [4] was “Pattern E”. In addition, in data set [2], the “DSC Thermal Events, Endo: melting of pattern A” value was 113 °C melting of pattern A; the “DSC Thermal Events, Endo: melting of pattern D” value is 141 °C melting of pattern D (shoulder); the “DSC Thermal Events, Endo: melting of pattern F” value was 148 °C meting of patter F; the “DSC Thermal Events, Exo: crystallization of pattern D” value was 127 °C crystallization of pattern D. In data set [2], the “DSC Thermal Events, Exo: crystallization of pattern F” value was 117 °C crystallization of pattern; the “thermodynamic stability (from heat of fusion)” value is listed as “thermodynamically stable”; the Heat of fusion came out at 29.73.

For the molecule `CC[C@H](C)C(=O)N1CCC(NC(=O)Nc2ccc(OC(F)(F)F)c(F)c2)CC1` [I], the “DSC Thermal Events, Endo: melting of pattern I” value in data set [2] is 144 °C melting of pattern I.

`CC[C@H](C)C(=O)N1CCC(NC(=O)Nc2ccc(OC(F)(F)F)c(F)c2)CC1` [L]: the “TGA: wt change” value in data set [1] (at range 107° C.-[…] C.) is on record as 0.4% wt change at. In addition, the “TGA: wt change” value in data set [1] (at range […] C.-135° C.) worked out at 0.3% wt change at. Moreover, in data set [2], the “DSC Thermal Events, Endo: melting of pattern D” value was 141 °C melting of pattern D; the “DSC Thermal Events, Endo: melting of pattern F” value was 148 °C melting of pattern F; the “DSC Thermal Events, Exo: crystallization of pattern D” value is 138 °C crystallization of pattern D; the “DSC Thermal Events, Exo: crystallization of pattern F” value was 143 °C crystallization of patter F.

For `CC[C@H](C)C(=O)N1CCC(NC(=O)Nc2ccc(OC(F)(F)F)c(F)c2)CC1` [Form E, (S)-1-(3-fluoro-4-(trifluoromethoxy)phenyl)-3-(1-(2-methylbutanoyl)piperidin-4-yl)urea], the “single form slurry in n-heptane: resultant polymorph” value in data set [4] is recorded as “Pattern E”. The “single form slurry in water: resultant polymorph” value in data set [4] (water) is listed as “Form C”.

For `CC[C@H](C)C(=O)N1CCC(NC(=O)Nc2ccc(OC(F)(F)F)c(F)c2)CC1` [J], the “TGA: wt change” value in data set [1] (at range 75° C.-82° C.) came to 3.7% wt change at. For the same molecule, the “TGA: wt change” value in data set [1] (at range 116° C.-[…] C.) is on record as 4.6% wt change at. In addition, in data set [2], the “DSC Thermal Events, Endo: dehydration of bound water/desolvation of pattern J or another unknown pattern” value is 129 °C dehydration of bound; the “DSC Thermal Events, Endo: melting of pattern B” value was 146 °C melting of pattern B; the “DSC Thermal Events, Endo: melting of pattern F” value is 149 °C melting of pattern F; the “DSC Thermal Events, Endo: melting of unknown pattern” value is 140 °C melting of unknown. Besides, in data set [2], the “DSC Thermal Events, Exo: crystallization of unknown pattern” value is 103 °C crystallization of unknown. Moreover, in data set [2] (major peak with a shoulder), the “DSC Thermal Events, Endo: dehydration of bound water/desolvation of pattern J” value is 91 °C dehydration of bound.
